Test results taken from ChEMBL document CHEMBL5505960, “Synthesis and evaluation of butylphthalide-scutellarein hybrids as multifunctional agents for the treatment of Alzheimer's disease” (Eur J Med Chem, 2024).
Activity calls are given as the source filed them. The calls are words filed in the database; no cut-off is given here.

How the values were obtained:
[1] = AUC (0 to t) in Balb/C mouse brain at 30 mg/kg, IG measured upto 8 hrs by LC-MS analysis; type: ADME, organism-based; conditions: in vivo, po
BV-2 [2] = test: Antineuroinflammatory activity in LPS-induced mouse BV-2 cells assessed as inhibition of IL-1 beta release at 0.5 uM preincubated for 30 mins followed by LPS stimulation and measured after 24 hrs relative to control; type: functional; set-up: scale not given: the % may be the effect or the level left; conditions: time 24.5 hrs
[3] = Metal chelating activity assessed as compound-Cu2+ complex formation at stoichiometric ratio of 1:1 in presence of CuCl2 by UV-Vis spectrometry
[4] = Metal chelating activity assessed as compound-Zn2+ complex formation by measuring bathochromic shift at 301 to 345nm in the presence of ZnCl2 by UV-Visible spectrophotometric analysis
Mus musculus [5] = test: Neuroprotective activity against Abeta42 induced cognition impairement in AD mouse model assessed as reduction in number of error at 1.1 to 9.9 mg/kg, IG administered daily for 7 days by passive avoidance test; type: functional, organism-based; conditions: dose 1.1-9.9 mg/kg, time 7.0 day
PC-12 [6] = test: Cytotoxicity against rat PC12 cells at 25 uM measured after 24 hrs by MTT assay; type: functional, cell-based
BV-2 [7] = test: Cytotoxicity against LPS-induced mouse BV-2 cells assessed as cell viability at 0.5 to 10 uM incubated for 24 hrs by MTT assay; type: toxicity, cell-based; conditions: bv-2, 24 h, dose 0.5-10 µM
BV-2 [8] = test: Antineuroinflammatory activity in LPS-induced mouse BV-2 cells assessed as inhibition of IL-1 beta release at 2.5 uM preincubated for 30 mins followed by LPS stimulation and measured after 24 hrs relative to control; type: functional; set-up: scale not given: the % may be the effect or the level left; conditions: time 24.5 hrs
[9] = Metal chelating activity assessed as compound-Cu2+ complex formation by measuring bathochromic shift at 301 to 345nm in the presence of CuCl2 by UV-Visible spectrophotometric analysis
BV-2 [10] = test: Antineuroinflammatory activity in LPS-induced mouse BV-2 cells assessed as inhibition of NO release at 2.5 uM preincubated for 30 mins followed by LPS stimulation and measured after 24 hrs relative to control; type: functional; set-up: scale not given: the % may be the effect or the level left; conditions: time 24.5 hrs
BV-2 [11] = test: Antineuroinflammatory activity in LPS-induced mouse BV-2 cells assessed as inhibition of NO release at 10 uM preincubated for 30 mins followed by LPS stimulation and measured after 24 hrs relative to control; type: functional; set-up: scale not given: the % may be the effect or the level left; conditions: time 24.5 hrs
HT-22 [12] = test: Neuroprotective activity against amyloid beta (1 to 42)-induced injury in mouse HT-22 cells assessed as increase in cell viability at 2.5 uM incubated for 24 hrs by MTT assay relative to control; type: functional
[13] = biological target: Amyloid-beta precursor protein (Homo sapiens) (UniProt P05067); test: Disaggregation of self-induced amyloid beta (1 to 42) (unknown origin) fibrils at 25 uM by ThT fluorescence assay relative to control
Amyloid-beta precursor protein (Homo sapiens), sequence (P05067 whole entry): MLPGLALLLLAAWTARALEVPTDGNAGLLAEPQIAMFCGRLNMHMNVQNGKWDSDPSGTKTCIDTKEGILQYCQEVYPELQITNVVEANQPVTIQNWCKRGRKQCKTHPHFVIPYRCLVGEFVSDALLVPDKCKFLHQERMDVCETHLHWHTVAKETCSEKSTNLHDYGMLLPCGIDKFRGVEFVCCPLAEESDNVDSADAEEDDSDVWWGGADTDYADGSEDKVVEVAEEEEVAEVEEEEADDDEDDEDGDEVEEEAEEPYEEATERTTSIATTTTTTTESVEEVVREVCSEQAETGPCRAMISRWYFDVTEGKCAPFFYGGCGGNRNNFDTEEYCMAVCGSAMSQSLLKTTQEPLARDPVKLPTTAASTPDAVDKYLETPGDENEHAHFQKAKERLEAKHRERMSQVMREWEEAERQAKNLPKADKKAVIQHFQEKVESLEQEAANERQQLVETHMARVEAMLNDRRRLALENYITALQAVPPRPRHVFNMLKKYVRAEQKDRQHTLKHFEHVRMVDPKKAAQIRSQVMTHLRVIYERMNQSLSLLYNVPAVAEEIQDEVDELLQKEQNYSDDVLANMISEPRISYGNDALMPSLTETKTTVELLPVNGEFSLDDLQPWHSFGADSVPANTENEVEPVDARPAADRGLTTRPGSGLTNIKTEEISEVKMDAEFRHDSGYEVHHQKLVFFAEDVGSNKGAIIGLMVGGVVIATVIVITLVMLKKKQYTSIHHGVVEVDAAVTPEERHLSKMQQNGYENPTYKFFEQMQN

HT-22 [14] = test: Neuroprotective activity against amyloid beta (1 to 42) induced cell injury in mouse HT-22 cells assessed as cell viability at 50 uM incubated for 24 hrs by MTT assay; type: functional, cell-based
BV-2 [15] = test: Antineuroinflammatory activity in LPS-induced mouse BV-2 cells assessed as inhibition of IL-1 beta release preincubated for 30 mins followed by LPS stimulation and measured after 24 hrs; type: functional, cell-based; conditions: dose 0.5-10 µM, time 24.5 hrs
HT-22 [16] = test: Neuroprotective activity against amyloid beta (1 to 42)-induced injury in mouse HT-22 cells assessed as reversal of reduced cell synapse length at 2.5 to 10 uM measured after 24 hrs […]; type: functional, cell-based; conditions: dose 2.5-10 µM
[17] = Metal chelating activity assessed as compound-Al3+ complex formation by measuring bathochromic shift at 301 to 330nm in the presence of AlCl3 by UV-Visible spectrophotometric analysis
[18] = biological target: Amyloid-beta precursor protein (Homo sapiens) (UniProt P05067); test: Inhibition of amyloid beta (1 to 42) (unknown origin) self induced aggregation at 25 uM by ThT fluorescence assay relative to control
PC-12 [19] = test: Neuroprotective activity against H2O2 induced rat PC12 cells assessed as increase in cell viability at 1 uM measured after 24 hrs by MTT assay relative to control; type: functional
[20] = AUC (0 to t) in Balb/C mouse plasma at 30 mg/kg, IG measured upto 8 hrs by LC-MS analysis; type: ADME, organism-based; conditions: po
[21] = Cmax in Balb/C mouse brain at 30 mg/kg, IG measured upto 8 hrs by LC-MS analysis; type: ADME, organism-based; conditions: po
[22] = Cmax in Balb/C mouse plasma at 30 mg/kg, IG measured upto 8 hrs by LC-MS analysis; type: ADME, organism-based; conditions: po
[23] = biological target: Amyloid-beta precursor protein (Homo sapiens) (UniProt P05067); test: Inhibition of amyloid beta (1 to 42) (unknown origin) fibrillation assessed as reduction in Cu2+ induced shorter fibrils at 25 uM measured after 24 hrs by TEM analysis
Mus musculus [24] = test: Neuroprotective activity in Sodium nitrite induced cognition impairement in C57BL/6 mouse model assessed as decrease in MAD level at 9.9 mg/kg, IG administered daily for 7 days; type: functional; conditions: time 7 day
Mus musculus [25] = test: Neuroprotective activity in Sodium nitrite induced cognition impairement in C57BL/6 mouse model assessed as increase in SOD activity at 9.9 mg/kg, IG administered daily for 7 days; type: functional; conditions: time 7 day
[26] = Metal chelating activity assessed as compound-Al3+ complex formation by measuring hyperchromic shift in the presence of AlCl3 by UV-Visible spectrophotometric analysis
[27] = Antioxidant activity assessed as trolox equivalent of ORAC radical scavenging activity by ORAC-FL assay relative to trolox; type: functional
[28] = biological target: Amyloid-beta precursor protein (Homo sapiens) (UniProt P05067); test: Inhibition of amyloid beta (1 to 42) (unknown origin) fibrillation assessed as reversal of A-beta 1-42 induced morphological changes at 25 uM measured after 24 hrs by TEM analysis
Mus musculus [29] = test: Neuroprotective activity in Sodium nitrite induced cognition impairement in C57BL/6 mouse model assessed as decrease in MAD level administered daily as IG for 7 days; type: functional, organism-based; conditions: dose 1.1-9.9 mg/kg, time 7.0 day

AUCt [1]: 681.3 ng·h/g | Activity [3]: Active | Activity [4]: Active | Activity [9]: Active | Activity [13]: 42.5% | Activity [17]: Active | inhibition [18]: 90.2% | AUC(0-t) at 8 h [20]: 852 ng·h/mL | Cmax [21]: 337 ng/mL | Cmax [22]: 879 ng/mL | inhibition [23]: Active | Activity [26]: Active | inhibition [28]: Active
Structure (SMILES): CCCCCC1OC(=O)c2c1cc(OC)c(O)c2O (centres undefined)
Activity (BV-2 [2]): 36.6% | Activity (Mus musculus [5]): Active | Activity (PC-12 [6]): inactive | Activity (BV-2 [7]): Non-Toxic | Activity (BV-2 [8]): 49.2% | Activity (BV-2 [10]): 47% | Activity (BV-2 [11]): 77.3% | Activity (HT-22 [12]): 76.3% | Activity (HT-22 [14]): Active | Activity (BV-2 [15]): Dose-Dependent Effect | Activity (HT-22 [16]): Active | Activity (PC-12 [19]): 68.1% | Activity (Mus musculus [24]): 2.8 nmol/mg | Activity (Mus musculus [25]): 193.1 U/mg | Activity [27]: 2.2 | Activity (Mus musculus [29]): Dose-Dependent Effect
